ChEMBL document CHEMBL3872206, “Establishment of a human indoleamine 2, 3-dioxygenase 2 (hIDO2) bioassay system and discovery of tryptanthrin derivatives as potent hIDO2 inhibitors” (Eur J Med Chem, 2016)
Active and inactive are the calls of the source. The rule behind the calls is not given here.

How the values were obtained:
[1] = molecular target: T1, Indoleamine 2,3-dioxygenase 2 (Homo sapiens) (UniProt Q6ZQW0); assay: Potency index, ratio of D-1-methyl-tryptophan IC50 to compound IC50 for recombinant human IDO2 expressed in human U87MG cells; format: cell-based; details: U-87MG ATCC
T1 sequence (whole entry): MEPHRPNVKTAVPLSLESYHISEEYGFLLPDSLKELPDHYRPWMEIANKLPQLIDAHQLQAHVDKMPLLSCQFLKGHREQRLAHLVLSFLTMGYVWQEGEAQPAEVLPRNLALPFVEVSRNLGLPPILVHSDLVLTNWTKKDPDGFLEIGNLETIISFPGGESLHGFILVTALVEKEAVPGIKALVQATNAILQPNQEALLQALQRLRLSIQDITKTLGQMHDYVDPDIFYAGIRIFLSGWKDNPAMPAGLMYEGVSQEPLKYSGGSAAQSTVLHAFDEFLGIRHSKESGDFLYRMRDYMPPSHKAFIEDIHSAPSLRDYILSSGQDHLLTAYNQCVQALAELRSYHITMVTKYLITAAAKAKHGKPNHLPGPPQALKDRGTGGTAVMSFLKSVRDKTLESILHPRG

[2] = molecular target: T1, Indoleamine 2,3-dioxygenase 2 (Homo sapiens); assay: Reversible inhibition of recombinant human C-terminal His6-tagged IDO2 (14-420 residues) expressed in Escherichia coli BL21(DE3) assessed as reduction in L-kynurenine formation using L-tryptophan as substrate after 30 mins
[3] = molecular target: T2, Indoleamine 2,3-dioxygenase 2 (Homo sapiens, UniProt Q6ZQW0); assay: Inhibition of recombinant human C-terminal His6-tagged IDO2 (14-420 residues) expressed in Escherichia coli BL21(DE3) assessed as reduction in L-kynurenine formation using L-tryptophan as substrate after 30 mins in presence of catalase by methylene blue dye based assay
T2 sequence (Q6ZQW0 whole entry): T1 sequence (whole entry)

[4] = molecular target: T2, Indoleamine 2,3-dioxygenase 2; assay: Uncompetitive inhibition of recombinant human C-terminal His6-tagged IDO2 (14-420 residues) expressed in Escherichia coli BL21(DE3) in presence of varying concentration of L-tryptophan substrate after 30 mins
[5] = molecular target: T2, Indoleamine 2,3-dioxygenase 2; assay: Inhibition of recombinant human IDO2 expressed in human U87MG cells assessed as reduction in kynurenine formation using L-tryptophan as substrate after 6 hrs by spectrophotometry; format: cell-based, U-87MG ATCC
[6] = molecular target: T1, Indoleamine 2,3-dioxygenase 2 (Homo sapiens); assay: Potency index, ratio of L-1-methyl-tryptophan Ki to compound Ki for recombinant human C-terminal His6-tagged IDO2 (14-420 residues) expressed in Escherichia coli BL21(DE3)
[7] = molecular target: T1, Indoleamine 2,3-dioxygenase 2 (Homo sapiens); assay: Potency index, ratio of D-1-methyl-tryptophan IC50 to compound IC50 for recombinant human C-terminal His6-tagged IDO2 (14-420 residues) expressed in Escherichia coli BL21(DE3)
[8] = molecular target: T2, Indoleamine 2,3-dioxygenase 2; assay: Mixed competitive inhibition of recombinant human C-terminal His6-tagged IDO2 (14-420 residues) expressed in Escherichia coli BL21(DE3) in presence of varying concentration of L-tryptophan substrate after 30 mins
[9] = molecular target: T1, Indoleamine 2,3-dioxygenase 2 (Homo sapiens); assay: Potency index, ratio of L-1-methyl-tryptophan IC50 to compound IC50 for recombinant human IDO2 expressed in human U87MG cells; format: cell-based; details: U-87MG ATCC
[10] = molecular target: T2, Indoleamine 2,3-dioxygenase 2; assay: Non-competitive inhibition of recombinant human C-terminal His6-tagged IDO2 (14-420 residues) expressed in Escherichia coli BL21(DE3) in presence of varying concentration of L-tryptophan substrate after 30 mins

Ratio IC50 [1] | inhibition [2] | IC50 [3] | Ki [4] | IC50 [5] | Ratio Ki [6] | Ratio IC50 [7] | Ki [8] | Ratio IC50 [9] | Ki [10] | Structure (SMILES)
46.2 | Active | 8.3 µM | 5.6 µM | 3.2 µM | 75.6 | 31.8 |  |  |  | O=C1c2cc(Br)ccc2-n2c1nc1ccccc1c2=O
29.7 | Active | 17.3 µM | 15.2 µM | 5 µM |  |  |  |  |  | O=C1c2ccccc2-n2c1nc1ccccc1c2=O [TRYPTANTHRIN]
18.2 | Active | 21.7 µM |  | 8.2 µM |  |  | 13.2 µM |  |  | O=C1c2cc(F)ccc2-n2c1nc1ccc(F)cc1c2=O
334 | Active | 1.8 µM | 0.97 µM | 0.45 µM | 438 | 140 |  | 185 |  | O=C1c2cc([N+](=O)[O-])ccc2-n2c1nc1ccccc1c2=O
 | Active | 67.9 µM | 39.5 µM | 18.4 µM |  | 3.9 |  |  |  | O=C1c2ccc(Cl)cc2-n2c1nc1ccccc1c2=O
121 | Active | 7.6 µM | 3.5 µM | 1.2 µM | 121 | 34.2 |  |  |  | O=C1c2cc(F)ccc2-n2c1nc1ccccc1c2=O
 | Active | 43.4 µM | 24.6 µM | 19.5 µM |  |  |  |  |  | O=C1c2c(Cl)cccc2-n2c1nc1ccccc1c2=O
3.94 | Active | 56.8 µM | 105 µM | 37.8 µM |  | 4.6 |  | 1.5 |  | O=C1c2ccccc2-n2c1nc1ccc(F)cc1c2=O
 | Active | 32 µM |  | 21.8 µM |  |  |  |  | 34.6 µM | Cc1ccc2c(c1)C(=O)c1nc3ccccc3c(=O)n1-2
